Source: patent US20250122219A1 (priority 2023, published 2025)
In brackets after ≈: the same amount, converted by molar mass. Like-named read-outs stand apart in the source and are kept apart here.

What was measured:
[1] = physchem; format: physicochemical; settings: ambient temperature, 5 mg/mL dose concentration; for solubility thermodynamic at 24 h / solubility thermodynamic: 23 °C, thermodynamic from solid; for solubility thermodynamic at 24 h: FaSSIF; for solubility thermodynamic: aqueous buffer
Procedure: Approximately 7 mg of each test compound as a dry powder was placed in a vial. Aliquots were weighed out for each assay media at 2 hour and 24 hour time points, to be analyzed. The appropriate buffer (FaSSIF or PBS) was added to each vial such that the final dose concentration of 5 mg/mL was achieved. […] The plate was sealed with a pierceable heat seal and analyzed by HPLC-UV.
A system QC (0.01 mg/mL Caffeine in DMSO) was injected every 12-15 injections. […] Results are reported using data obtained at 280 nm. The resulting peak areas were plotted against the known concentrations from the calibration and the filtrates are quantified with respect to the linear regression using Agilent OpenLab Intelligent Reporting Software. The results are reported electronically in mg/mL.

[2] = system: HIV-1 (IIIB); test: Antiviral assay in MT-4 cells; format: cell-based
Summary of the method: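 HIV-1 IIIB-infected MT-4 cells (fresh 1:250 virus stock dilution; mock-infected controls) incubated 5 days at 37 °C with serially diluted compounds in RPMI/10% FBS; 5 μM AZT as positive control. Cell viability read by CellTiter-Glo luminescence as measure of protection from viral replication.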

[3] = Cytotoxicity assay in MT-4 cells; format: cell-based; settings: human; uninfected MT-4 cells, 5 days incubation, Cell Titer Glo; read-out: MT4 CC50
Summary of the method: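 Uninfected MT-4 cells exposed to serially diluted compounds in RPMI with 10% FBS for 5 days at 37 °C. Viability by Cell Titer Glo chemiluminescence. Puromycin […] as baseline cytotoxicity control.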

[4] = Human immunodeficiency virus 1, MT4, 120 h, HIV-1 IIIB in MT-4 cells, 5 days incubation, Cell Titer Glo, read-out: MT4 EC50

SMILES | Thermodynamic PBS Solubility (mg/mL) ([1]; PBS) | EC50 [2, 4] | CC50 at 5 days [3] | solubility thermodynamic at 24 h [1] | solubility thermodynamic ([1]; PBS) | EC50 ([2]; Human immunodeficiency virus 1, IIIB, MT4, 120 h, read-out: MT4 EC50 (nM))
CCCCCCCCCCCCCCCCCC(=O)Oc1c2n(cc(C(=O)NCc3ccc(F)cc3F)c1=O)[C@@H]1CN(C2=O)[C@@H](C)CC[C@]12CC(C)=NO2 [Example 15, (3′S,5S,7′R)-10′-((2,4-difluorobenzyl)carbamoyl)-3,3′-dimethyl-1′,11′-dioxo-1′,4′,5′,11′-tetrahydro-3′H,4H,7′H-spiro[isoxazole-5,6′-[2,7]methanopyrido[1,2-a][1,4]diazonin]-12′-yl stearate] | <LOD | 6.36 nM | ≥ 50000 nM |  |  | 
CC1=NO[C@@]2(CC[C@H](C)N3C[C@H]2n2cc(C(=O)NCc4ccc(F)cc4F)c(=O)c(O[C@@H](C)OC(=O)OC(C)C)c2C3=O)C1 (single isomer, unassigned) [Example 21] |  | 26.4 nM | ≥ 50000 nM | 150 µg/mL (≈ 243 µM) |  | 
CC1=NO[C@@]2(CC[C@H](C)N3C[C@H]2n2cc(C(=O)NCc4ccc(F)cc4F)c(=O)c(OC(=O)OC(C)C)c2C3=O)C1 [Example 22, (3′S,5S,7′R)-10′-((2,4-difluorobenzyl)carbamoyl)-3,3′-dimethyl-1′,11′-dioxo-1′,4′,5′,11′-tetrahydro-3′H,4H,7′H-spiro[isoxazole-5,6′-[2,7]methanopyrido[1,2-a][1,4]diazonin]-12′-yl isopropyl carbonate] |  | 0.992 nM | 12500 nM | 70 µg/mL (≈ 122 µM) | 34 µg/mL (≈ 59.4 µM) | 
COCCOCCOCCOC(=O)Oc1c2n(cc(C(=O)NCc3ccc(F)cc3F)c1=O)[C@@H]1CN(C2=O)[C@@H](C)CC[C@]12CC(OC)=NO2 [Example 3, (3′S,5S,7′R)-10′-((2,4-difluorobenzyl)carbamoyl)-3-methoxy-3′-methyl-1′,11′-dioxo-1′,4′,5′,11′-tetrahydro-3′H,4H,7′H-spiro[isoxazole-5,6′-[2,7]methanopyrido[1,2-a][1,4]diazonin]-12′-yl (2-(2-(2-methoxyethoxy)ethoxy)ethyl) carbonate] |  | 1.06 nM | 16300 nM | 470 µg/mL (≈ 679 µM) |  | 
COCCOCCOC(=O)Oc1c2n(cc(C(=O)NCc3ccc(F)cc3F)c1=O)[C@@H]1CN(C2=O)[C@@H](C)CC[C@]12CC(C)=NO2 [Example 8, (3′S,5S,7′R)-10′-((2,4-difluorobenzyl)carbamoyl)-3,3′-dimethyl-1′,11′-dioxo-1′,4′,5′,11′-tetrahydro-3′H,4H,7′H-spiro[isoxazole-5,6′-[2,7]methanopyrido[1,2-a][1,4]diazonin]-12′-yl (2-(2-methoxyethoxy)ethyl) carbonate] |  |  | 11700 nM | 486 µg/mL (≈ 768 µM) |  | 0.632 nM
COCCOC(=O)OCOc1c2n(cc(C(=O)NCc3ccc(F)cc3F)c1=O)[C@@H]1CN(C2=O)[C@@H](C)CC[C@]12CC(C)=NO2 [Example 10, (((3′S,5S,7′R)-10′-((2,4-difluorobenzyl)carbamoyl)-3,3′-dimethyl-1′,11′-dioxo-1′,4′,5′,11′-tetrahydro-3′H,4H,7′H-spiro[isoxazole-5,6′-[2,7]methanopyrido[1,2-a][1,4]diazonin]-12′-yl)oxy)methyl (2-methoxyethyl) carbonate] |  | 6.4 nM | 31700 nM | 35 µg/mL (≈ 56.6 µM) | 15 µg/mL (≈ 24.2 µM) | 
CC1=NO[C@@]2(CC[C@H](C)N3C[C@H]2n2cc(C(=O)NCc4ccc(F)cc4F)c(=O)c(OCOC(=O)OC(C)C)c2C3=O)C1 [Example 24, (((3′S,5S,7′R)-10′-((2,4-difluorobenzyl)carbamoyl)-3,3′-dimethyl-1′,11′-dioxo-1′,4′,5′,11′-tetrahydro-3′H,4H,7′H-spiro[isoxazole-5,6′-[2,7]methanopyrido[1,2-a][1,4]diazonin]-12′-yl)oxy)methyl isopropyl carbonate] |  | 5.17 nM | 31700 nM | 8 µg/mL (≈ 13.3 µM) |  | 
CC1=NO[C@@]2(CC[C@H](C)N3C[C@H]2n2cc(C(=O)NCc4ccc(F)cc4F)c(=O)c(O[C@H](C)OC(=O)OC(C)C)c2C3=O)C1 (single isomer, unassigned) [Example 20] |  | 11.5 nM | 35000 nM | 70 µg/mL (≈ 114 µM) |  | 
